Assay [1] concerns the target Tyro3 (Homo sapiens (Human), UniProt Q06418). The experiment in a line: biochemical. The following applies: read-out: Tyro3IC50.
Procedure: (§1) 0.1 ul test compounds dissolved in DMSO were transferred from compound plates to white 384-well assay plates (Greiner [sequence] plates). […] The plate was protected from light and incubated at room temperature for 60 min.
Assay [2] addresses c-Mer (Homo sapiens (Human), UniProt Q12866). The following applies: read-out: c-Mer IC50; HTRF, 60 min room temperature. (Time-resolved FRET reads energy transfer from a long-lived donor to a nearby acceptor.)
Procedure: as §1
In assay [3] the target is Phospho-Axl (Homo sapiens (Human), UniProt P30530). The experiment in a line: biochemical. The following applies: HTRF, 60 min room temperature.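 Also: test system is recombinant Axl protein that was first autophosphorylated with ATP and MgCl2.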
Phospho-Axl, sequence (P30530 26-894): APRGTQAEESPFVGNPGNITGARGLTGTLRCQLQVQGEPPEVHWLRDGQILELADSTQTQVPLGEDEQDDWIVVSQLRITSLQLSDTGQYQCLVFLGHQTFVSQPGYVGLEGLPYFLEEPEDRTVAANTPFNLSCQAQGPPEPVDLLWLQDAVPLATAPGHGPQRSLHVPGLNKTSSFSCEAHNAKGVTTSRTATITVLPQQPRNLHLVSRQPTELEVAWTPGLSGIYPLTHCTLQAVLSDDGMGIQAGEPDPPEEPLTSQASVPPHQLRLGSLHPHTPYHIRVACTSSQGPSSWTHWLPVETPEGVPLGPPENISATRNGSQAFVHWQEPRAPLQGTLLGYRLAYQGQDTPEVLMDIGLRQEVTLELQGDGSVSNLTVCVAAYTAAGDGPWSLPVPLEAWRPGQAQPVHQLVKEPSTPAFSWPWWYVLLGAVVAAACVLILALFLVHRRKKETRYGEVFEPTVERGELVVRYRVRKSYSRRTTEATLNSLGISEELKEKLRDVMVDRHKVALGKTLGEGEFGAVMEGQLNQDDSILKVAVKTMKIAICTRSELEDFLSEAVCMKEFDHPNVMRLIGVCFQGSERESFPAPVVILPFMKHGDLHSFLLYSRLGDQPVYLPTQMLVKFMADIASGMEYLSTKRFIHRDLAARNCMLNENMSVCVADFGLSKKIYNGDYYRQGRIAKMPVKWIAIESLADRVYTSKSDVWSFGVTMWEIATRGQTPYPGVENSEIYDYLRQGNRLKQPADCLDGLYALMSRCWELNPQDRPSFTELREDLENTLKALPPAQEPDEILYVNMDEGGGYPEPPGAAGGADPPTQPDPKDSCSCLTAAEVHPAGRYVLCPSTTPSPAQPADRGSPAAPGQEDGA
Procedure: Autophosphorylation of Axl was carried out by incubating the recombinant Axl protein (Life Technologies, PV4275) in buffer containing 50 mM Tris, pH7.5, 0.2 mg/ml Axl, 5 mM ATP, 20 mM MgCl2 and 2 mM DTT at room temperature for 1 hour.
as §1

c-Mer, sequence (Q12866 21-999): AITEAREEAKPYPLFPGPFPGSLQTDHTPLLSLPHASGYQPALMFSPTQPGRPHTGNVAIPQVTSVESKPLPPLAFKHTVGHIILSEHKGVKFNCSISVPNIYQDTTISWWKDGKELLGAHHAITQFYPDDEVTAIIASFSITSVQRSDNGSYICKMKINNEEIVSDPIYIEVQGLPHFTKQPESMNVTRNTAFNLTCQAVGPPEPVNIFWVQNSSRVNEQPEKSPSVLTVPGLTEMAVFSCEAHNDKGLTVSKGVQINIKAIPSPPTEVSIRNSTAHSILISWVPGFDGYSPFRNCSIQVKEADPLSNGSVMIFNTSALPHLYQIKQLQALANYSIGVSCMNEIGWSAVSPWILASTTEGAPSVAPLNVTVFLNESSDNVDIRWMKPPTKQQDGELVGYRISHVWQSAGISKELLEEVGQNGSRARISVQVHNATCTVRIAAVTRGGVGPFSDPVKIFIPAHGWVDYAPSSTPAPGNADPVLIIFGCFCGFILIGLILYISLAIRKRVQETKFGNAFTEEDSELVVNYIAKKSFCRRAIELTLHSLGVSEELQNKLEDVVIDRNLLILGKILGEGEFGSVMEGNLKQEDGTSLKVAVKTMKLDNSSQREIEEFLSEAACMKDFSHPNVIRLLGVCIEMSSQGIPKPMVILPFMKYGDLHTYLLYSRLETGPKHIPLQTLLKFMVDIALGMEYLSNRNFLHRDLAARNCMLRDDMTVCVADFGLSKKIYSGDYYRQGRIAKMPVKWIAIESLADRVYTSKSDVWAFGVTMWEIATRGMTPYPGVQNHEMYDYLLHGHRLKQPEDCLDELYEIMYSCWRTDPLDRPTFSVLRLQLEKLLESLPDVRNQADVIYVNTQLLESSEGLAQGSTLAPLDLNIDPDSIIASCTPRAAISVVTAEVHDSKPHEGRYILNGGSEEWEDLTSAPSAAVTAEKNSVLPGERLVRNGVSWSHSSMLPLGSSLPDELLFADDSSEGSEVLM
Tyro3, sequence (Q06418 41-890): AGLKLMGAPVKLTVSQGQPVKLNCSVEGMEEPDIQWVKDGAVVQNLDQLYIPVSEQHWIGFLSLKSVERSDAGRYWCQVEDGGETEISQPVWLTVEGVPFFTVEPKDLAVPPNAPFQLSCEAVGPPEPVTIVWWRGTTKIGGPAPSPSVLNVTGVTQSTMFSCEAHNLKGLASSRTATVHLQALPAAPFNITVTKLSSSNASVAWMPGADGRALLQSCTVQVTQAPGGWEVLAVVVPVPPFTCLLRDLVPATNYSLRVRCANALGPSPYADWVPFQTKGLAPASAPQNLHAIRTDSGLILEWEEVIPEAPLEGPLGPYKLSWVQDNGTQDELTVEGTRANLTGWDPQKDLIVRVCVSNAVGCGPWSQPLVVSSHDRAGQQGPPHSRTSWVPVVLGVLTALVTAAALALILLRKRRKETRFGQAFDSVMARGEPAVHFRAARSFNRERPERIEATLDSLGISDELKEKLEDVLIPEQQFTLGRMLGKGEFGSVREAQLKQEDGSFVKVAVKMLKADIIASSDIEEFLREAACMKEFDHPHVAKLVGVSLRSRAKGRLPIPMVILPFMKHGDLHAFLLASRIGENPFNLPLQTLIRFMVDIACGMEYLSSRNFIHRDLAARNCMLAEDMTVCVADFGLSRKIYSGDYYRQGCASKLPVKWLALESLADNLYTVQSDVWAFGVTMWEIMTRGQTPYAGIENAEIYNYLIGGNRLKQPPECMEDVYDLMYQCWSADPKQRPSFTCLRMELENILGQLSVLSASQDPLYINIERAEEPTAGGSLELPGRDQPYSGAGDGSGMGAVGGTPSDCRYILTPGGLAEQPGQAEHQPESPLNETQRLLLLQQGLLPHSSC

Regarding `O=C(NCC1(c2cccc(-c3ncnc4[nH]ccc34)c2)Cc2ccccc2C1)N1CCOCC1` [Example 35, N-({2-[3-(7H-Pyrrolo[2,3-d]pyrimidin-4-yl)phenyl]-2,3-dihydro-1H-inden-2-yl}methyl)morpholine-4-carboxamide], the IC50 in assay [1] and in assay [2] was greater than 3000 nM in each case. Consider `N#CCC1(c2cccc(-c3ncnc4[nH]ccc34)c2)Cc2ccccc2C1` [Example 36, {2-[3-(7H-Pyrrolo[2,3-d]pyrimidin-4-yl)phenyl]-2,3-dihydro-1H-inden-2-yl}acetonitrile], for which the IC50 in assay [1] was greater than 3000 nM. With `NCCC1(c2cccc(-c3ncnc4[nH]ccc34)c2)Cc2ccccc2C1` [Example 37, 2-{2-[3-(7H-Pyrrolo[2,3-d]pyrimidin-4-yl)phenyl]-2,3-dihydro-1H-inden-2-yl}ethanamine], the IC50 in assay [1] is greater than 3000 nM; in assay [3], less than 500 nM. Turning to `CC(C)C(=O)NCCC1(c2cccc(-c3ncnc4[nH]ccc34)c2)Cc2ccccc2C1` [Example 38, 2-Methyl-N-(2-{2-[3-(7H-pyrrolo[2,3-d]pyrimidin-4-yl)phenyl]-2,3-dihydro-1H-inden-2-yl}ethyl)propanamide], the IC50 in assay [1] is greater than 3000 nM. For the compound `O=C(NCCC1(c2cccc(-c3ncnc4[nH]ccc34)c2)Cc2ccccc2C1)C1CC1` [Example 39, N-(2-{2-[3-(7H-Pyrrolo[2,3-d]pyrimidin-4-yl)phenyl]-2,3-dihydro-1H-inden-2-yl}ethyl)cyclopropanecarboxamide], the results for the IC50 in assay [1] and in assay [3] were greater than 3000 nM and less than 500 nM, respectively. Take `NCC1(c2cccc(-c3ncnc4[nH]ccc34)c2)Cc2ccc(CNC3CC3)cc2C1` (stereo not shown) [Example 40, N-((2-(3-(7H-Pyrrolo[2,3-d]pyrimidin-4-yl)phenyl)-2-(aminomethyl)-2,3-dihydro-1H-inden-5-yl)methyl)cyclopropanamine]: the IC50 in assay [1] and in assay [2] was greater than 3000 nM throughout. As to `NCC1(c2cccc(-c3ncnc4[nH]ccc34)c2)Cc2ccc(CNC3CCC3)cc2C1` (stereo not shown) [Example 41, N-((2-(3-(7H-Pyrrolo[2,3-d]pyrimidin-4-yl)phenyl)-2-(aminomethyl)-2,3-dihydro-1H-inden-5-yl)methyl)cyclobutanamine], the IC50 in assay [1] and in assay [2] was greater than 3000 nM in each case. On to `NCC1(c2cccc(-c3ncnc4[nH]ccc34)c2)Cc2ccc(CN3CCC[C@@H]3C(N)=O)cc2C1` (stereo partly drawn) [Example 43, (2R)-1-((2-(3-(7H-Pyrrolo[2,3-d]pyrimidin-4-yl)phenyl)-2-(aminomethyl)-2,3-dihydro-1H-inden-5-yl)methyl)pyrrolidine-2-carboxamide], for which the IC50 in assay [1] and in assay [3] was greater than 3000 nM throughout. For the compound `NCC1(c2cccc(-c3ncnc4[nH]ccc34)c2)Cc2ccc(CN3CC[C@H](C(N)=O)C3)cc2C1` (stereo partly drawn) [Example 44, (3S)-1-((2-(3-(7H-Pyrrolo[2,3-d]pyrimidin-4-yl)phenyl)-2-(aminomethyl)-2,3-dihydro-1H-inden-5-yl)methyl)pyrrolidine-3-carboxamide], the IC50 in assay [2] was greater than 3000 nM. On the same count and under the same terms, the result for `NCC1(c2cccc(-c3ncnc4[nH]ccc34)c2)Cc2ccc(CN3CCC3)cc2C1` (stereo not shown) [Example 46, (2-(3-(7H-Pyrrolo[2,3-d]pyrimidin-4-yl)phenyl)-5-(azetidin-1-ylmethyl)-2,3-dihydro-1H-inden-2-yl)methanamine] reads greater than 3000 nM; that for `NCC1(c2cccc(-c3ncnc4[nH]ccc34)c2)Cc2ccc(CN3CC(F)C3)cc2C1` (stereo not shown) [Example 47, (2-(3-(7H-Pyrrolo[2,3-d]pyrimidin-4-yl)phenyl)-5-((3-fluoroazetidin-1-yl)methyl)-2,3-dihydro-1H-inden-2-yl)methanamine], greater than 3000 nM. For the compound `N#Cc1ccc2c(c1)CC(CNC(=O)C1CC1)(c1cccc(-c3ncnc4[nH]ccc34)c1)C2` (stereo not shown) [Example 50, N-({5-Cyano-2-[3-(7H-pyrrolo[2,3-d]pyrimidin-4-yl)phenyl]-2,3-dihydro-1H-inden-2-yl}methyl)cyclopropanecarboxamide], the IC50 in assay [1] is greater than 3000 nM. With `CN(C)C1CCN(c2ccc3c(c2)CC(CN)(c2cccc(-c4ncnc5[nH]ccc45)c2)C3)C1` (stereo not shown) [Example 52, 1-{2-(Aminomethyl)-2-[3-(7H-pyrrolo[2,3-d]pyrimidin-4-yl)phenyl]-2,3-dihydro-1H-inden-5-yl}-N,N-dimethylpyrrolidin-3-amine], the IC50 in assay [1] and in assay [3] was greater than 3000 nM in each case. With `CNC1CCN(c2ccc3c(c2)CC(CN)(c2cccc(-c4ncnc5[nH]ccc45)c2)C3)C1` (stereo not shown) [Example 53, 1-{2-(Aminomethyl)-2-[3-(7H-pyrrolo[2,3-d]pyrimidin-4-yl)phenyl]-2,3-dihydro-1H-inden-5-yl}-N-methylpyrrolidin-3-amine], the IC50 in assay [1] and in assay [3] was greater than 3000 nM in each case. Take `NCC1(c2cccc(-c3ncnc4[nH]ccc34)c2)Cc2ccc(N3CCC(O)C3)cc2C1` (stereo not shown) [Example 54, 1-{2-(Aminomethyl)-2-[3-(7H-pyrrolo[2,3-d]pyrimidin-4-yl)phenyl]-2,3-dihydro-1H-inden-5-yl}pyrrolidin-3-ol]: the IC50 in assay [1] was greater than 3000 nM. Regarding `CC(O)C1CCN(c2ccc3c(c2)CC(CN)(c2cccc(-c4ncnc5[nH]ccc45)c2)C3)C1` (stereo not shown) [Example 55, 1-(1-{2-(Aminomethyl)-2-[3-(7H-pyrrolo[2,3-d]pyrimidin-4-yl)phenyl]-2,3-dihydro-1H-inden-5-yl}pyrrolidin-3-yl)ethanol], the IC50 in assay [1] and in assay [3] was greater than 3000 nM throughout. Regarding `NCC1(c2cccc(-c3ncnc4[nH]ccc34)c2)Cc2ccc(N3CCCC(O)C3)cc2C1` (stereo not shown) [Example 58, 1-{2-(Aminomethyl)-2-[3-(7H-pyrrolo[2,3-d]pyrimidin-4-yl)phenyl]-2,3-dihydro-1H-inden-5-yl}piperidin-3-ol], the IC50 in assay [1] was less than 500 nM; in assay [2] it was greater than 3000 nM. With `N#CC1CCN(c2ccc3c(c2)CC(CN)(c2cccc(-c4ncnc5[nH]ccc45)c2)C3)CC1` (stereo not shown) [Example 59, 1-{2-(Aminomethyl)-2-[3-(7H-pyrrolo[2,3-d]pyrimidin-4-yl)phenyl]-2,3-dihydro-1H-inden-5-yl}piperidine-4-carbonitrile], the IC50 in assay [2] is greater than 3000 nM. The same measure, in the same setting: the result for `NCC1(c2cccc(-c3ncnc4[nH]ccc34)c2)Cc2ccc(NC3CCOCC3)cc2C1` (stereo not shown) [Example 60, N-{2-(Aminomethyl)-2-[3-(7H-pyrrolo[2,3-d]pyrimidin-4-yl)phenyl]-2,3-dihydro-1H-inden-5-yl}tetrahydro-2H-pyran-4-amine] reads greater than 3000 nM. With `NCC1(c2cccc(-c3ncnc4[nH]ccc34)c2)Cc2ccc(N3CCCC3)cc2C1` (stereo not shown) [Example 61, 1-{5-Pyrrolidin-1-yl-2-[3-(7H-pyrrolo[2,3-d]pyrimidin-4-yl)phenyl]-2,3-dihydro-1H-inden-2-yl}methanamine], in assay [1], the IC50 was greater than 3000 nM. Still for that read-out and setting: the result for `COCCCNc1ccc2c(c1)CC(CN)(c1cccc(-c3ncnc4[nH]ccc34)c1)C2` (stereo not shown) [Example 66, 2-(Aminomethyl)-N-(3-methoxypropyl)-2-[3-(7H-pyrrolo[2,3-d]pyrimidin-4-yl)phenyl]indan-5-amine] reads greater than 3000 nM; that for `COCC1(Nc2ccc3c(c2)CC(CN)(c2cccc(-c4ncnc5[nH]ccc45)c2)C3)CC1` (stereo not shown) [Example 67, 2-(Aminomethyl)-N-[1-(methoxymethyl)cyclopropyl]-2-[3-(7H-pyrrolo[2,3-d]pyrimidin-4-yl)phenyl]indan-5-amine], greater than 3000 nM. Turning to `NCC1(c2cccc(-c3ncnc4[nH]ccc34)c2)Cc2ccc(-c3cccc(F)c3)cc2C1` (stereo not shown) [Example 70, 1-{5-(3-Fluorophenyl)-2-[3-(7H-pyrrolo[2,3-d]pyrimidin-4-yl)phenyl]-2,3-dihydro-1H-inden-2-yl}methanamine], the IC50 in assay [2] was greater than 3000 nM. Consider `NCC1(c2cccc(-c3ncnc4[nH]ccc34)c2)Cc2ccc(-c3ccc(F)cc3)cc2C1` (stereo not shown) [Example 71, 1-{5-(4-Fluorophenyl)-2-[3-(7H-pyrrolo[2,3-d]pyrimidin-4-yl)phenyl]-2,3-dihydro-1H-inden-2-yl}methanamine], for which the IC50 in assay [2] is greater than 3000 nM. As to `CN(C)c1ccc(-c2ccc3c(c2)CC(CN)(c2cccc(-c4ncnc5[nH]ccc45)c2)C3)cc1` (stereo not shown) [Example 72, 4-{2-(Aminomethyl)-2-[3-(7H-pyrrolo[2,3-d]pyrimidin-4-yl)phenyl]-2,3-dihydro-1H-inden-5-yl}-N,N-dimethylaniline], the IC50 in assay [1] and in assay [3] was less than 500 nM each time. As to `NCC1(c2cccc(-c3ncnc4[nH]ccc34)c2)Cc2ccc(-c3ccc4nccn4c3)cc2C1` (stereo not shown) [Example 73, 1-{5-Imidazo[1,2-a]pyridin-6-yl-2-[3-(7H-pyrrolo[2,3-d]pyrimidin-4-yl)phenyl]-2,3-dihydro-1H-inden-2-yl}methanamine], the IC50 in assay [1] was greater than 3000 nM. Turning to `NCC1(c2cccc(-c3ncnc4[nH]ccc34)c2)Cc2ccc(-c3ccc(N4CCCC4)nc3)cc2C1` (stereo not shown) [Example 75, 1-{5-(6-Pyrrolidin-1-ylpyridin-3-yl)-2-[3-(7H-pyrrolo[2,3-d]pyrimidin-4-yl)phenyl]-2,3-dihydro-1H-inden-2-yl}methanamine], the IC50 in assay [1] was greater than 3000 nM; in assay [3], less than 500 nM. Regarding `NCC1(c2cccc(-c3ncnc4[nH]ccc34)c2)Cc2ccc(-c3cccnc3)cc2C1` (stereo not shown) [Example 77, (2-(3-(7H-Pyrrolo[2,3-d]pyrimidin-4-yl)phenyl)-5-(pyridin-3-yl)-2,3-dihydro-1H-inden-2-yl)methanamine], the IC50 was less than 500 nM in assay [1] and greater than 3000 nM in assay [2].

In the case of `NCC1(c2cccc(-c3ncnc4[nH]ccc34)c2)Cc2ccc(-c3ccncc3)cc2C1` (stereo not shown) [Example 78, (2-(3-(7H-Pyrrolo[2,3-d]pyrimidin-4-yl)phenyl)-5-(pyridin-4-yl)-2,3-dihydro-1H-inden-2-yl)methanamine], the IC50 in assay [2] is greater than 3000 nM.

For `Cc1cc2c(-c3cccc(C4(CN)Cc5ccccc5C4)c3)ncnc2[nH]1` [Example 93, 1-{2-[3-(6-Methyl-7H-pyrrolo[2,3-d]pyrimidin-4-yl)phenyl]-2,3-dihydro-1H-inden-2-yl}methanamine], in assay [1], the IC50 was greater than 3000 nM.
